We go through 15 molecules from ChEMBL document CHEMBL1201862, “PubChem BioAssay data set” (2004).

Some test systems named below: HCT-15; ACHN; SNB-19; SF-539; NCI-H226; HOP-92; MOLT-4; SK-MEL-5; LOX IMVI; UACC-62; SNB-75; COLO 205; DLD-1; CAKI-1; EKVX; MCF7; BT-549; DU-145; Hs-578T; PC-3.
Common to all, as to experiment: NCI tumour cell line growth inhibition, 48 h

Each structure is given as a SMILES string.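 These data come from cells grown in 96-well plates and exposed to compound for 48 hours at five concentrations. The concentration for 50% growth inhibition is given as GI50.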 The source made the active and inactive calls. No stated cut-off is given here; in the data, active = GI50 up to about 1.1 µM and inactive = higher. Bounds are passed on as bounds.

As for `COc1ccc2c3c1C(=O)CCCC3CO2` (centres undefined), the GI50 was greater than 100 µM with HCT-15; > 100 µM (inactive) in the assay with ACHN; > 100 µM (inactive) in the assay with SNB-19; > 100 µM (inactive) in the assay with SF-539; > 100 µM (inactive) in the assay on NCI-H226; > 100 µM (inactive) in the assay on HOP-92. Also, the GI50 in the assay with MOLT-4, in the assay on SK-MEL-5, in the assay on LOX IMVI, with UACC-62, in the assay with SNB-75 and with COLO 205 was > 100 µM (inactive) each time. Besides, the GI50 in the assay on DLD-1 was > 100 µM (inactive).
Regarding `CC(=O)CC(N)=O`, the GI50 with HCT-15 was greater than 100 µM; in the assay on ACHN, > 100 µM (inactive); in the assay with CAKI-1, > 100 µM (inactive); in the assay on SNB-19, > 100 µM (inactive); in the assay on SF-539, > 100 µM (inactive); in the assay on NCI-H226, > 100 µM (inactive). The GI50 with HOP-92, with MOLT-4, in the assay with SK-MEL-5, with UACC-62, with SNB-75 and with COLO 205 was > 100 µM (inactive) in each case. The GI50 with EKVX and in the assay with DLD-1 was > 100 µM (inactive) in each case.
For the molecule `O=C1c2ccccc2C(=O)C12CCc1ccccc12`, the GI50 in the assay on HCT-15 was greater than 100 µM; in the assay with ACHN it was > 100 µM (inactive); in the assay on CAKI-1, > 100 µM (inactive); with HOP-92, > 100 µM (inactive); in the assay on MOLT-4 it was 4.18 µM (inactive); with LOX IMVI it was > 100 µM (inactive). For the same molecule, the GI50 was > 100 µM (inactive) in the assay with UACC-62; 40.3 µM (inactive) with SNB-75; > 100 µM (inactive) with COLO 205; > 100 µM (inactive) in the assay on EKVX; > 100 µM (inactive) in the assay on DLD-1.
Consider `O=c1ncccn1C1C=C(CO)C(O)C1O` (centres undefined), for which the GI50 in the assay with HCT-15 was greater than 50 µM; in the assay with ACHN it was > 50 µM (inactive); in the assay with CAKI-1 it was > 50 µM (inactive); in the assay on SNB-19, > 50 µM (inactive); in the assay with SF-539, > 50 µM (inactive); in the assay with NCI-H226 it was > 50 µM (inactive). Further, the GI50 in the assay with HOP-92, in the assay on MOLT-4, in the assay on SK-MEL-5, in the assay with LOX IMVI, in the assay with COLO 205 and with EKVX was > 50 µM (inactive) each time. Moreover, in the assay with DLD-1, the GI50 was > 50 µM (inactive).
Consider `COc1c(CC(C)=O)c2ccccc2n1C(C)=O`, for which the GI50 in the assay on HCT-15 is greater than 100 µM; with ACHN, > 100 µM (inactive); with CAKI-1, > 100 µM (inactive); with SNB-19, > 100 µM (inactive); with SF-539, > 100 µM (inactive); in the assay on HOP-92, > 100 µM (inactive). The GI50 with MOLT-4, in the assay on UACC-62, in the assay on SNB-75, with COLO 205, in the assay with EKVX and in the assay with DLD-1 was > 100 µM (inactive) each time.
Regarding `O=C(CSc1nnc(Cc2ccccc2)o1)Nc1ccccc1`, the GI50 was greater than 100 µM with HCT-15; > 100 µM (inactive) in the assay on ACHN; > 100 µM (inactive) in the assay on SF-539; > 100 µM (inactive) with NCI-H226; > 100 µM (inactive) in the assay on MOLT-4; > 100 µM (inactive) in the assay on SK-MEL-5. The GI50 with LOX IMVI, in the assay on UACC-62, in the assay with SNB-75, in the assay on COLO 205 and in the assay on DLD-1 was > 100 µM (inactive) throughout.
For `CC1=C(NC(=O)/C(=N/NC(=S)NN)C2C(=O)CC(C)(C)CC2=O)C(=O)c2ccccc2C1=O`, the GI50 in the assay on HCT-15 was 6 µM; in the assay on ACHN, 13.3 µM (inactive); in the assay with CAKI-1, 20.7 µM (inactive); with SNB-19, 13 µM (inactive); with SF-539 it was 3.6 µM (inactive); in the assay with NCI-H226, 14 µM (inactive). Besides, the GI50 in the assay on MOLT-4 was 4.07 µM (inactive); in the assay on SK-MEL-5, 2.15 µM (inactive); with LOX IMVI, 3.34 µM (inactive); in the assay on UACC-62, 2.49 µM (inactive); in the assay on SNB-75, 21.6 µM (inactive); with COLO 205, 12.5 µM (inactive). Moreover, the GI50 with EKVX is 15.7 µM (inactive); in the assay with DLD-1, 4.48 µM (inactive).
`CC(=O)c1c2c(cc3c1CC1(C3)Cc3cc4c(c(C(C)=O)c3C1)CCC4)CCC2`: the GI50 is > 100 µM (inactive) with ACHN; > 100 µM (inactive) in the assay on CAKI-1; > 100 µM (inactive) in the assay with SNB-19; > 100 µM (inactive) in the assay on SF-539; > 100 µM (inactive) in the assay on HOP-92; 73.1 µM (inactive) with MOLT-4. Moreover, the GI50 was > 100 µM (inactive) in the assay with SK-MEL-5; > 100 µM (inactive) in the assay with LOX IMVI; > 100 µM (inactive) in the assay with UACC-62; 82.4 µM (inactive) with SNB-75; > 100 µM (inactive) in the assay on COLO 205; > 100 µM (inactive) in the assay on DLD-1.
On to `NC(=O)CCC(NC(=O)Cc1ccccc1)C(=O)O` (centres undefined), for which the GI50 in the assay with HCT-15 was greater than 2470 µM; in the assay with CAKI-1, 1280 µM (inactive); in the assay with SNB-19, > 2470 µM (inactive); in the assay with SF-539, 1420 µM (inactive); in the assay on HOP-92, 1060 µM (inactive); in the assay on MOLT-4, > 2470 µM (inactive). In addition, the GI50 in the assay on SK-MEL-5 is > 2470 µM (inactive); with UACC-62, > 2470 µM (inactive); in the assay with SNB-75, 724 µM (inactive); in the assay with COLO 205 it was > 2470 µM (inactive); with EKVX it was > 2470 µM (inactive); with DLD-1, > 2470 µM (inactive).
As to `CC1=NN(c2ccccc2)C(=O)/C1=C\c1ccc([N+](=O)[O-])cc1`, the GI50 was 29.6 µM with HCT-15; 31.5 µM (inactive) in the assay with ACHN; 27.3 µM (inactive) in the assay on CAKI-1; 30.5 µM (inactive) with SNB-19; 22.4 µM (inactive) in the assay with SF-539; 21.5 µM (inactive) in the assay with MOLT-4. Also, the GI50 is 22.4 µM (inactive) with SK-MEL-5; 21.1 µM (inactive) in the assay with LOX IMVI; 21.7 µM (inactive) in the assay with UACC-62; 25.5 µM (inactive) in the assay on SNB-75; 17.7 µM (inactive) in the assay with COLO 205; 36.6 µM (inactive) in the assay on EKVX. Also, in the assay with DLD-1, the GI50 was 36 µM (inactive).
`COC1C2c3ccccc3C(C#N)(Cc3ccc4c(c32)OCO4)N1C(=O)c1ccccc1` (centres undefined): the GI50 with HCT-15 was 17.1 µM; with ACHN, 41.4 µM (inactive); in the assay with SNB-19, 46.6 µM (inactive); with SF-539, > 100 µM (inactive); in the assay with NCI-H226, 12.5 µM (inactive); in the assay on HOP-92, > 100 µM (inactive). The GI50 in the assay on MOLT-4 is 30.1 µM (inactive); in the assay on SK-MEL-5 it was 3.76 µM (inactive); with LOX IMVI, > 100 µM (inactive); in the assay on UACC-62, 3.37 µM (inactive); in the assay on SNB-75 it was 50.6 µM (inactive); in the assay on COLO 205, 16.7 µM (inactive). Also, the GI50 in the assay on EKVX is 45.8 µM (inactive); with DLD-1 it was 60.3 µM (inactive).
Turning to `O=C(c1nc2ccccc2nc1O)C(O)c1ccccc1` (centres undefined), the GI50 in the assay with HCT-15 is 96.2 µM; in the assay on ACHN it was 44.6 µM (inactive); in the assay with CAKI-1, > 100 µM (inactive); with SNB-19, > 100 µM (inactive); with SF-539, 44.1 µM (inactive); with NCI-H226, 76.7 µM (inactive). In addition, the GI50 is 63.7 µM (inactive) in the assay with HOP-92; 64.9 µM (inactive) in the assay on MOLT-4; > 100 µM (inactive) in the assay on SK-MEL-5; 39.5 µM (inactive) with LOX IMVI; 72.4 µM (inactive) in the assay on UACC-62; > 100 µM (inactive) in the assay on COLO 205. Besides, the GI50 in the assay with EKVX was 64.6 µM (inactive); in the assay with DLD-1 it was > 100 µM (inactive).
As for `CC(C)CN1CC(C)C(=O)NC1=O` (centres undefined), the GI50 with ACHN, in the assay with CAKI-1, in the assay on SNB-19, in the assay on SF-539, with NCI-H226 and with HOP-92 was > 100 µM (inactive) in each case. Besides, the GI50 in the assay on MOLT-4, in the assay with SK-MEL-5, in the assay with LOX IMVI, with UACC-62, with COLO 205 and in the assay on EKVX was > 100 µM (inactive) each time. Besides, the GI50 with DLD-1 is > 100 µM (inactive).
For `O=S(O)CCCCCSSCCCCSSCCCCCS(=O)O`, the GI50 is greater than 100 µM with HCT-15; > 100 µM (inactive) in the assay on ACHN; > 100 µM (inactive) in the assay on CAKI-1; > 100 µM (inactive) in the assay with SNB-19; > 100 µM (inactive) in the assay with SF-539; > 100 µM (inactive) in the assay on HOP-92. Further, the GI50 with MOLT-4 was 33.8 µM (inactive); in the assay with SK-MEL-5, > 100 µM (inactive); in the assay with LOX IMVI, > 100 µM (inactive); with UACC-62, > 100 µM (inactive); with SNB-75 it was 30.8 µM (inactive); with COLO 205, > 100 µM (inactive). Moreover, the GI50 with EKVX and in the assay with DLD-1 was > 100 µM (inactive) each time.
In the case of `Cc1ccc(C)c(NC(=O)C(=O)C2C(=O)C3=C(CC2(C)C)Nc2ccccc2S3)c1` (centres undefined), the GI50 is greater than 100 µM with HCT-15; > 100 µM (inactive) with ACHN; > 100 µM (inactive) in the assay on MCF7; > 100 µM (inactive) with CAKI-1; > 100 µM (inactive) with SNB-19; > 100 µM (inactive) with BT-549. The GI50 in the assay with SF-539 is 56.9 µM (inactive); in the assay on NCI-H226, 58.1 µM (inactive); with HOP-92, 52.1 µM (inactive); in the assay with DU-145, 93.5 µM (inactive); in the assay with MOLT-4, 23.9 µM (inactive); in the assay on SK-MEL-5 it was 79.8 µM (inactive). In addition, the GI50 with Hs-578T was 69.2 µM (inactive); in the assay with LOX IMVI, > 100 µM (inactive); in the assay on UACC-62 it was > 100 µM (inactive); with SNB-75 it was 29.4 µM (inactive); in the assay on PC-3 it was > 100 µM (inactive); with COLO 205, > 100 µM (inactive). Also, the GI50 in the assay on EKVX was 73.5 µM (inactive).
